# Experimental data reported in patent publication US20170202932A1, “METHODS FOR INHIBITING NEURON APOPTOSIS AND NECROSIS” (NEWSOUTH INNOVATIONS PTY LIMITED, priority 2012, published 2017).
# Legend:
# [1] = molecular target: T1, recombinant mouse TRPC3c channels (Mus musculus, UniProt Q9QZC1, DEL811-838); test: Fluo-4 Ca2+ imaging of DHPG-activated Ca2+ entry, HEK293 cells co-expressing TRPC3c and mGluR1; assay type: cell-based; details: genistein 200 μM pre-application, n=6, without genistein 2.71±0.217
# T1 construct: expressed in transfected cells; host or cells: HEK293 cells, stably transfected (pIRES-DsRed2 vector)
# T1 sequence (Q9QZC1 with tags, fused parts or gaps DEL811-838): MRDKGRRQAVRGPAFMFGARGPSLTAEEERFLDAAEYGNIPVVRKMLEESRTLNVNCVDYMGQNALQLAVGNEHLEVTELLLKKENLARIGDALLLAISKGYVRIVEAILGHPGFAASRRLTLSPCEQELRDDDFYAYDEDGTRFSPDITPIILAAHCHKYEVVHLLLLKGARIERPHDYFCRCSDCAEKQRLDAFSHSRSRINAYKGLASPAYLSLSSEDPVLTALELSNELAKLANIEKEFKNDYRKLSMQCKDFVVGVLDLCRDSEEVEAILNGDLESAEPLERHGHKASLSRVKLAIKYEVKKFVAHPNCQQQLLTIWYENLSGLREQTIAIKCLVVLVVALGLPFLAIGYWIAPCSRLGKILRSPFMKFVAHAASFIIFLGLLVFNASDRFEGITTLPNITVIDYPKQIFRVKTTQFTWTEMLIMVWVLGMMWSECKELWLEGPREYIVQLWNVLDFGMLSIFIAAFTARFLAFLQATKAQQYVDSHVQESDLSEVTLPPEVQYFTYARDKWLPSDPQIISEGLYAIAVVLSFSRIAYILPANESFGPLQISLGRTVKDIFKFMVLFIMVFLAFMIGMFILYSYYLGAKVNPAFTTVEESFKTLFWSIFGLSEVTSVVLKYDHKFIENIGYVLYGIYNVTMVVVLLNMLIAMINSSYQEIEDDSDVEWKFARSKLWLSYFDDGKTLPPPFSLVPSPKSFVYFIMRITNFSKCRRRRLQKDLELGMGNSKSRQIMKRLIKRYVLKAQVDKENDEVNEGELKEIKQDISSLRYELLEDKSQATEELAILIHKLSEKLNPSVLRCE
# Method: The TRPC3-mediated Ca^2+ entry through two distinct activation pathways was assessed by microfluorometric Ca^2+ imaging: i) Ca^2+ entry via the M3 receptor-PLCB-DAG pathway endogenous to HEK293 cells, using Indo-1 as a Ca^2+ indicator; and ii) Ca^2+ entry via mGluR1-PLCB-DAG through co-expression of the mGluR1, using Fluo-4 as a Ca^2+ indicator.
# Cells were grown in DMEM media on 18 mm circular coverslips coated with poly-D-lysine (25 μg/ml) and collagen (25 μg/ml) at 1:1 ratio. The cells were washed with HPSS. The coverslips were then incubated with HPSS and 0.1% pluronic acid, along with either 1 μM Indo-1AM or Fluo-4AM Ca^2+ indicator (Invitrogen, U.S.A.) for an hour prior to the experiment. […]
# For Fluo-4 experiments, the cells were mounted on an inverted microscope (DMIL, Leica) with a 20× 0.4NA objective (Leica HCX PL Fluotar), and illuminated with a mercury lamp using a GFP filter (part no. 11504164; excitation 470/40 nm, dichroic 500 nm, emission 525/50 nm) every 5 seconds (Andor iXon+ 885 EMCCD Camera, Ireland) with a gated shutter (Ludl Electronic Products, U.S.A.), controlled via Andor IQ (v1.8.1) software. The images were then analysed using Image J software (NIH, U.S.A.) with individual regions of interest (ROIs) identified for HEK293 cells responding to M3 or mGluR1 agonists with increased Ca^2+ signal. […]
# [2] = system: mouse cerebellar brain slices; test: Oxygen glucose deprivation (OGD) in organotypic cerebellar brain slices, propidium iodide staining; assay type: cell-based; details: genistein 200 μM
# Method: TRPC3c-mediated brain injury arising from transient oxygen glucose deprivation (OGD) was evaluated in organotypic cerebellar brain slices using the TRPC channel blocker Genistein. The brain slices (400 μm) were prepared as described in Example 5. Mice ([…] strain, 6-8 weeks old) were anaesthetized with pentobarbital and decapitated. The brain was removed and submerged in ice cold modified artificial cerebral spinal fluid (ACSF) solution containing 4 mM KCl, 5 mM MgCl2, 1 mM CaCl2, 26 mM NaHCO3, 10 mM glucose, 246 mM sucrose equilibrated with 95% CO2, 5% O2. Slices were cut with a VT1200 vibratome (Leica, Germany) and were allowed to recover in culture medium (75% Minimum Essential Medium (MEM), 25% heat-inactivated horse serum, 25 mM HEPES, 1 mM glutamine, 27.7 mM glucose) for at least 1 h in a tissue culture incubator (37° C., 5% CO2 in air). Hurtado de Mendoza et al. (2011) J Vis Exp. (51). (pii):2564).
# For OGD-induced neuronal loss, the brain slices were placed in an anaerobic chamber (Coy Laboratory Products, USA; 100% N2) in OGD medium (75% MEM, 25% Hanks Buffered Salt Solution, 1 mM glutamine) Radley et a. (2012). Neurosci Lett. 506 (1):131-5). Controls included slices placed directly into culture medium in a tissue culture incubator (37° C., 5% CO2 in air). Slices were exposed to OGD for 0, 15 and 30 minutes, with or without 200 μM genistein (n=2 for each condition). […]
# src tyrosine kinase = src tyrosine kinase (Homo sapiens, UniProt P12931); details: cited from earlier work
# Chain of src tyrosine kinase (P12931 whole entry): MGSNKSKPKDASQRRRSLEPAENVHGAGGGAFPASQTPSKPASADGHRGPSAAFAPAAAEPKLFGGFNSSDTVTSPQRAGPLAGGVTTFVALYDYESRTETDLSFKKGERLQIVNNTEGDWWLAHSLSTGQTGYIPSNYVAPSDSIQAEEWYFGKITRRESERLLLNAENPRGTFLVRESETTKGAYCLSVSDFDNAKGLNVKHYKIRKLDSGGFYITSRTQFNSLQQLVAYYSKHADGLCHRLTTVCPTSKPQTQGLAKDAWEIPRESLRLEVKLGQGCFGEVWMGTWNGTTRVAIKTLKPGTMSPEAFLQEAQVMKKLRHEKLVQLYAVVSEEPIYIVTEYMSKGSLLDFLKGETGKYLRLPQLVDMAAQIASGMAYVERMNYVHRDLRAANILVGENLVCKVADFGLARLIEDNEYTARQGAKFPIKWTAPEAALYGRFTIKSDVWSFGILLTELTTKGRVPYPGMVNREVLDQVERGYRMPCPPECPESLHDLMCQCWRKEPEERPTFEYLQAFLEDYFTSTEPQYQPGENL
compound,measurement,setting,value
"O=c1c(-c2ccc(O)cc2)coc2cc(O)cc(O)c12 [genistein, 4′, 5,7-trihydroxyisoflavone]",Fluo-4 fluorescence F/F0 (TRPC3-mediated Ca2+ entry after DHPG),[1],0.876±0.0621
same,propidium iodide fluorescence in granule cell layer and molecular layer after OGD,[2],reduced propidium iodide fluorescence
same,neuronal loss and oedema in the Purkinje cell layer after OGD,"[2]; 15 mins and 30 mins OGD, n=2 slices per condition",provided protection from the neuronal loss and oedema in the PCL
same,src tyrosine kinase-mediated phosphorylation of TRPC3,src tyrosine kinase,inhibit
